The values that follow come from patent US20060229356A1, “Use of indomethacin and derivatives as broad-spectrum antiviral drugs and corresponding pharmaceutical compositions” (priority 2003, published 2006).

Data set [1] concerns paramyxovirus (Sendai, SV). Put plainly: Sendai virus (SV) replication in 37RC cells, hemagglutination assay. The format is cell-based. As to conditions: for Virus yield: Table 2, SV; for Reduction of virus production: paramyxovirus, each agent given separately.
The test system of data set [2] is Herpes Simplex type 1 virus (HSV-1). As to the kind of experiment: HSV-1 replication in HEp-2 cells, CPE50% assay. The class given is cell-based, Herpes Simplex virus type 1.
Data set [3] concerns coronavirus (CCoV, S-378 strain). Put plainly: Coronavirus (CCoV) replication in A-72 cells, CPE50% assay. The class given is cell-based.
Data set [4] concerns Vesicular Stomatitis Virus (VSV). As to conditions: VSV infection; cited from earlier work.
For the next data set, the system named is herpesviruses. The following applies: some herpesviruses; cited from earlier work.
Data set [5] concerns transcription factor NF-κB. Put plainly: Activation of NF-κB induced by viral infection. The class given is cell-based. The following applies: at the active antiviral concentrations, data not shown.
For the next data set, the system named is GRP78/BiP. As to the kind of experiment: Synthesis of stress protein GRP78/BiP. The format is cell-based.
The next data set concerns coxsackie virus. As to conditions: cited from earlier work.
Data set [6] concerns influenza A virus (WSN strain). Put plainly: Influenza A virus (WSN) replication in A549 cells, hemagglutination assay. The following applies: for Virus yield: Table 2, WSN; for Decrease of virus production: influenza virus, each agent given separately. The format is cell-based.
For another data set, the system named is HIV-1. The following applies: HIV-1 infection; cited from earlier work.
The test system of another data set is virion. Put plainly: Addition to the virus suspension or during virus adsorption. The format is cell-based. As to conditions: INDO 5-10 mM, any of the viruses indicated.
Another data set has as its system poxvirus. As to conditions: cited from earlier work.
The next data set deals with rotavirus (SA-11 strain). As to the kind of experiment: Rotavirus (SA-11) replication in MA104 cells, hemagglutination assay. The class given is cell-based. The following applies: MA104, 24 h, read-out: IC50 (50% reduction of the virus titer).
Data set [7] relates to A-72 cells infected with CCoV. Put plainly: Cytoprotective effect in CCoV-infected A-72 cells (FIG. 2). The class given is cell-based, canine. The following applies: A-72 cells infected with CCoV for 24 hours, 400 microM INDO. Here is the method: (§1) FIGS. 1 and 2 show the cytoprotective effect of INDO. Cells were infected as described in example 1.
FIG. 2A: A-72 cells non infected (control); FIG. 2B: A-72 cells infected with CCoV for 24 hours non treated (CCoV); FIG. 2C: A-72 cells infected with CCoV for 24 hours and treated with 400 microM INDO (CCoV+INDO).

The subject of data set [8] is 37RC cells infected with SV. As to the kind of experiment: Cytoprotective effect in SV-infected 37RC cells (FIG. 1). The class given is cell-based, monkey. As to conditions: 37RC cells infected with SV for 24 hours, 400 microM INDO. Here is the method:
as §1
FIG. 1A: 37RC cells non infected (control); FIG. 1B: 37RC cells infected with SV for 24 hours non treated (SV); FIG. 1C: 37RC cells infected with SV for 24 hours and treated with 400 microM INDO (SV+INDO).

Data set [9] concerns transcription factor HSF (Heat Shock Factor). Put plainly: Activation of HSF (Heat Shock Factor). The class given is cell-based. The following applies: at the active antiviral concentrations, data not shown.

The structures appear in SMILES notation. “And” between values parts separate entries of the source, which are not always exact repeats. Identical values can stand only once. Where only a bound is given, the exact number is not on record here.

`CCCCC/C=C/C=C1/C(=O)C=C[C@@H]1C/C=C\CCCC(=O)O` [15dx-PGJ2, 15deoxy-Δ^12-14-PGJ2]: the Virus yield in data set [1] (15dx-PGJ2 alone 1 μM) is reported as 37 % of control. For the same molecule, the “Reduction of virus production” value in data set [1] worked out at 63%.
On to `Nc1nc2c(ncn2COCCO)c(=O)[nH]1` [ACY, acyclovir], for which the Virus yield in data set [2] (Table 2, HSV-1, ACY alone 1 μM) is recorded as 7.7 % of control.
A word on the IC50: it is the concentration that gives 50% inhibition. The inhibition is the relative decrease from the control value, in per cent. As for `COc1ccc2c(c1)c(CC(=O)O)c(C)n2C(=O)c1ccc(Cl)cc1` [INDO, Indomethacin], the IC50 was 130 µM in [1] (Respirovirus muris, 24 h, read-out: IC50 (50% reduction of the virus titer)); less than 50 µM in data set [3] (A-72, 24 h, read-out: IC50 (50% reduction of the virus titer)); 400 µM in data set [6] (Influenza A virus, WSN, A549, 24 h, read-out: IC50 (50% reduction of the virus titer)); less than 25 µM in the data set on rotavirus (SA-11 strain). Besides, the Virus yield in data set [1] (INDO alone 100 μM) was 50 % of control and 60 % of control; in [2] (Table 2, HSV-1, INDO alone 25 μM), 28.2 % of control and 38.1 % of control; in data set [2] (Table 2, HSV-1, INDO alone 100 μM) it was 9.7 % of control; in data set [6] (INDO alone 200 μM), 75 % of control; in [6] (INDO alone 400 μM), 67 % of control. The “Reduction of virus production” value in data set [1] was 40%. In addition, the inhibition at 50 µM in data set [3] (A-72, coronavirus, INDO 50 microM, read-out: Inhibition of virus production as compared to control) was more than 90%. Besides, the “Antiviral effect (literature)” value in [4] was “antiviral effect”; in the data set on herpesviruses, “antiviral effect”; in the data set on coxsackie virus it was “no antiviral effect or to worsen the infection”; with HIV-1, “antiviral effect”; in the data set with poxvirus, “no antiviral effect or to worsen the infection”. Moreover, in [5], the “Inhibition of NF-κB activation induced by the viral infection” value is reported as “does not inhibit”. For the same molecule, in the data set on GRP78/BiP, the “Synthesis of endoplasmic reticulum stress protein GRP78/BiP” value is on record as “observed the synthesis”. For the same molecule, the “Effect at 48 hours after infection” value in data set [6] is “lost its effect”. The “Decrease of virus production” value in [6] is recorded as “approximately 30%”. Further, the “Effect on virus replication when added to the virus suspension or during virus adsorption” value in the data set on virion is reported as “no effect”. Further, the “Protective effect on cellular damage (cytopathic effect) caused by virus” value in data set [7] and in data set [8] was “protected from the destructive cytopathic effect” each time. In addition, in the data set on host cell, the “Concentrations non-toxic for the host cell” value was in the range of 10 to 800 µM. Also, the “Activation of HSF (Heat Shock Factor)” value in data set [9] was “does not activate”.
Turning to `CCCCC[C@H](O)/C=C/[C@H]1C=CC(=O)[C@@H]1CCCCCCC(=O)O` [PGA1], the Virus yield in data set [2] (Table 2, HSV-1, PGA1 alone 25 μM) is 9 % of control.
In the case of `NC(=O)c1ncn([C@@H]2O[C@H](CO)[C@@H](O)[C@H]2O)n1` [RIB, ribavirin], the Virus yield in data set [6] (RIB alone 50 μM) is reported as 58 % of control.
Regarding `[Cl-].[Cl-].[Zn+2]` [ZnCl2], the Virus yield in data set [1] (ZnCl2 alone 50 μM) is 60 % of control; in data set [2] (Table 2, HSV-1, ZnCl2 alone 50 μM), 8.3 % of control; in data set [6] (ZnCl2 alone 50 μM), 67 % of control.
Turning to `CCCCC[C@H](O)C/C=C1/C(=O)C=C[C@@H]1C/C=C\CCCC(=O)O` [Δ^12-PGJ2], the Virus yield in data set [6] (Δ^12-PGJ2 alone 5 μM) was 67 % of control. Also, the “Decrease of virus production” value in data set [6] is “approximately 30%”.
